Where a name gives a salt, the structure may show the parent alone. Read-outs that look alike come from different tables or passages of the source.
Assays:
CDK9/cyclin K = target: T1, CDK9/cyclin K (Homo sapiens, UniProt P50750); experiment: TR-FRET Lanthascreen Eu Kinase Binding assay; conditions: for Curve Class: classifies curves by quality of fit, efficacy and number of asymptotes; for Efficacy: difference between highest and lowest activity across concentration range; for Efficacy / Max Resp: in %
T1 construct: purchased Invitrogen (ThermoFisher) PV4335
Source text: The TR-FRET Lanthascreen Eu Kinase Binding assay for CDK9/cyclin K was purchased from ThermoFisher and performed as per manufacturer instructions.

CDK9-86b = target: T2, CDK9-86b (Homo sapiens, UniProt P50750); experiment: SplitLuc CETSA of CDK9-86b; assay type: cell-based; conditions: 45 °C for 3.5 min, 96-well PCR plate
T2 construct: Size (a.a., untagged); expressed in transfected cells; host or cells: HEK293T
Method: For CDK9, 2 µg of DNA per well was used. After 24 h (48 h for CDK9), cells were harvested by trypsinization and resuspended at 1 × 10^6 cells/mL (unless otherwise indicated) in CETSA buffer containing DPBS (with CaCl2 and MgCl2) plus 1 g/L glucose, 1X Halt protease inhibitor cocktail (ThermoFisher), and 0.5% DMSO (DMSO was not added for experiments that received subsequent compound and vehicle treatment). For temperature range experiments (without compound or single dose), samples were aliquoted to PCR strips at 30 µL per tube. […] Samples were then heated for 3.5 min using a pre-heated thermal cycler, allowed to equilibrate to room temperature, and 6 µL of 6% NP40 was added to each well. […] 11S (GenScript) and furimazine substrate (from Nano-Glo Luciferase Assay System, Promega) were added, at final concentrations of 100 nM and 0.5X, respectively, and samples were analyzed for luminescence intensity using a ViewLux High-throughput CCD imager (Perkin Elmer) equipped with clear filters.
Cells were transfected and harvested as above (384-well protocol). Cells were dispensed (5 µL cell/well) into 1,536-well white plates (Aurora, cyclic olefin polymer, cat# EWB041000A) using a Multidrop Combi. […] One µL of 6% NP40 was added per well and plates were incubated for 30 min to allow cell lysis followed by addition of 3 µL 11S (final concentration 100 nM) and furimazine substrate. Plates were centrifuged and analyzed for luminescence intensity using a ViewLux reader. For the LDHA and CDK9 screens, a final concentration of 0.5X and 0.25X furimazine was used, respectively. Normalization controls include DMSO and GSK2837808A-treated samples or unheated samples for LDHA and CDK9, respectively. […] Subsequently, 500 pM (final) of 86b was added to the wells, followed by addition of 100 nM 11S and 0.25X furimazine substrate (final).

[1] = logarithm of AC50, read-out: Log AC50 (converted)
[2] = concentration at which half maximal activity is observed, 7-point qHTS, read-out: AC50

T2 sequence (P50750 whole entry): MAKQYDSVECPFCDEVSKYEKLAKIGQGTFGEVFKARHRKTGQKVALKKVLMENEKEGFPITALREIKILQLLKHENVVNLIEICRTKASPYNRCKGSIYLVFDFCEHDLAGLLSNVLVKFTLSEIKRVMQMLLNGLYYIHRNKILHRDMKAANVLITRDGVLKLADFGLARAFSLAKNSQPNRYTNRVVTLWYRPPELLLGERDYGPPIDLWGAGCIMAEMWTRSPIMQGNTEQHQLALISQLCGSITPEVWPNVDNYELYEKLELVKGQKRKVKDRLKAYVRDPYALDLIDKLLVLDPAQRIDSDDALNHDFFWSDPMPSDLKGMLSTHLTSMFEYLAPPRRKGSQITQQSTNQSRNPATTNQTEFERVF
T1 sequence (P50750 whole entry): as above
T1 sequence (O75909 whole entry partner): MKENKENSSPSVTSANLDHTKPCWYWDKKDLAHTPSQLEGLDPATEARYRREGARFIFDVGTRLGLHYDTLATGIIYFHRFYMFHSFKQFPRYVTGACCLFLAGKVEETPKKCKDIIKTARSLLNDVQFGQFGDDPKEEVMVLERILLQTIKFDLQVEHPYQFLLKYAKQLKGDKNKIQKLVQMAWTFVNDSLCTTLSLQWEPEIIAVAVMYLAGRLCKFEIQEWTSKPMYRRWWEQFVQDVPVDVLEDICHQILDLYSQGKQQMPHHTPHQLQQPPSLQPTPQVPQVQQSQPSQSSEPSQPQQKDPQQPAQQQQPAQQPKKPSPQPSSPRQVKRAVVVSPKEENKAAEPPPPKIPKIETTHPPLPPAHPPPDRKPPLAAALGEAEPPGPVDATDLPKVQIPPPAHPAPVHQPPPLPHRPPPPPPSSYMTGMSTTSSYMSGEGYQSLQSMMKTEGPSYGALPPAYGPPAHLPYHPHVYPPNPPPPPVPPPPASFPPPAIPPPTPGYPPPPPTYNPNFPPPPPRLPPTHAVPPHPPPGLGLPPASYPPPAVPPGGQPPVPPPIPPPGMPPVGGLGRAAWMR

Compound | Curve Class (CDK9/cyclin K) | Efficacy (CDK9/cyclin K) | Max Resp (CDK9/cyclin K) | stabilization of CDK9-86b in follow-up experiments (CDK9-86b) | AC50 (CDK9/cyclin K; [1]) | AC50 (CDK9/cyclin K; [2])
COc1cc(F)ccc1-c1ncnc(Nc2cccc(C[S+](C)(=N)[O-])c2)n1 (centres unmarked) [BAY-1143572] | -1.2 | -55.3 | -100.3 | stabilize |  | 
COc1ccc(F)cc1-c1cc(NC(=O)[C@@H]2CCCNC2)ncc1Cl [CDK-IN-2] | 5 | 0.0 | -98.0 | stabilize |  | 
O=C1NC(=O)C(c2cnc3ccccn23)=C1c1cn2c3c(cc(F)cc13)CN(C(=O)N1CCCCC1)CC2 [LY2090314] | -1.1 | -79.5 | -83.9 |  | 631 nM | 
CC(C)c1c2cc(-c3ccnc(N[C@H]4CC[C@H](NC5CCOCC5)CC4)n3)ccc2nn1C [LY2857785] | 5 | -28.1 | -89.7 |  |  | 
C[C@@H](Oc1ccc2[nH]nc(/C=C/c3cnn(CCO)c3)c2c1)c1c(Cl)cncc1Cl [LY2874455] | -1.1 | -87.6 | -91.8 |  |  | 299 nM
Cc1ccc(C(N)=O)cc1Nc1nccc(-c2cn(C(C)C)c3cnccc23)n1 [NCGC00263020-01] | -1.1 | -90.3 | -99.8 |  |  | 
Cc1ccc([N+](=O)[O-])cc1[S+](=O)([O-])N(C)/N=C/c1cnc2ccc(Br)cn12 [NCGC00346500-05, PIK-75] | 5 | -24.5 | -95.2 |  |  | 
N#Cc1ccnc(Nc2cc(C3CCN(C4COC4)CC3)cc(N3CCC(F)(F)C3)n2)c1 [NCGC00384250-01] | -1.2 | -76.1 | -87.1 |  |  | 189 nM
O=[N+]([O-])c1cccc2[nH]c(CNc3nc(N4CCOCC4)nc4c3ncn4-c3ccsc3)nc12 [NCGC00386926-01] | -1.2 | -69.1 | -72.6 |  |  | 
Cc1ccc([N+](=O)[O-])cc1[S+](=O)([O-])N(C)/N=C\c1cnc2ccc(Br)cn12 [NCGC00387028-01, PIK-75] | 5 | 0.0 | -93.4 |  |  | 
Oc1cc(CNC(=S)/C=C/c2cc(O)c(O)c(Br)c2)cc(O)c1O [NT 157] | -1.4 | -60.3 | -8.3 |  |  | 
C[S+](=O)([O-])N1CCC(NC(=O)c2[nH]ncc2NC(=O)c2c(Cl)cccc2Cl)CC1 [NVP-LCQ195] | -1.2 | -72.2 | -98.8 |  |  | 
CC(=O)c1cnc2ccc(-c3cc(Cl)c(O)c(Cl)c3)nc2c1N[C@H]1CC[C@H](CN(C)C)CC1 [OTSSP167] | -1.1 | -82.5 | -98.5 |  |  | 
CN(c1ncccc1CNc1nc(Nc2ccc3c(c2)CC(=O)N3)ncc1C(F)(F)F)[S+](C)(=O)[O-] [PF-562271] | -1.1 | -92.3 | -101.3 |  |  | 
CC(C)CC(=O)Nc1[nH]nc2c1CN(C(=O)C1CCN(C)CC1)C2(C)C [PHA-793887] | -1.1 | -87.0 | -99.5 |  |  | 
COc1ccccc1-c1c[nH]c2ncc(-c3cncc(C(=O)N(C)C)c3)cc12 [PPY A] | -1.1 | -90.1 | -95.0 |  |  | 
C1=C/COCc2cc(ccc2OCCN2CCCC2)Nc2nccc(n2)-c2cccc(c2)COC/1 [Pacritinib] | -1.2 | -64.6 | -95.3 |  |  | 
CC(=O)c1c(C)c2cnc(Nc3ccc(N4CCNCC4)cn3)nc2n(C2CCCC2)c1=O [Palbociclib (PD-0332991) HCl] | -1.1 | -92.3 | -91.0 |  |  | 

Compound | Curve Class (CDK9/cyclin K) | Efficacy (CDK9/cyclin K) | Max Resp (CDK9/cyclin K) | stabilization of CDK9-86b in follow-up experiments (CDK9-86b) | AC50 (CDK9/cyclin K; [1]) | AC50 (CDK9/cyclin K; [2])
N[C@H]1CC[C@H](Nc2nc(Nc3ccc(C(=O)N4CCCCC4)cc3)c3ncn(-c4cccc(F)c4)c3n2)CC1 [Purfalcamine] | -1.2 | -78.7 | -96.3 |  | 631 nM | 
CC(C)[C@H](CO)Nc1nc(Nc2cccc(Cl)c2)c2ncn(C(C)C)c2n1 [Purvalanol A] | -1.1 | -79.6 | -72.7 |  |  | 
O=C(NCc1cccc(O)c1)Nc1nc(-c2ccncc2)cs1 [RKI-1447] | -1.2 | -64.8 | -59.5 |  |  | 
Cc1cc(Nc2cc(NC(=O)c3c(Cl)cccc3Cl)ccn2)nc(N)n1 [RO495] | -1.1 | -93.8 | -99.1 |  |  | 
Cn1cc(C2=C(c3cn(CCCSC(=N)N)c4ccccc34)C(=O)NC2=O)c2ccccc21 [Ro 31-8220 (mesylate)] | -1.3 | -42.0 | -60.6 |  |  | 
CC[C@H](CO)Nc1nc(NCc2ccccc2)c2ncn(C(C)C)c2n1 [Roscovitine] | -1.1 | -100.3 | -97.7 |  |  | 
CN1C/C=C/CCOc2cccc(c2)-c2ccnc(n2)Nc2cccc(c2)C1 [SB1317] | 5 | -6.2 | -95.8 | stabilize |  | 
COc1ccc2c(c1)/C(=C/c1cnc[nH]1)C(=O)N2 [SU9516] | -1.1 | -93.0 | -90.2 |  |  | 
CCS(=O)(=O)c1cccc(-c2cc(C(=O)NC3CCN(C)CC3)c(C)c3[nH]c4ncc(C)cc4c23)c1 [TAK-901] | -1.1 | -101.2 | -96.3 |  |  | 
O=C1OC(/C=C/c2ccccc2)=NC/1=C\c1cccnc1 [TC-DAPK 6] | -1.2 | -71.2 | -68.2 |  |  | 
Oc1ccc(-c2ccc(-c3cc(Nc4cccc(CNC5CC5)c4)[nH]n3)cc2)c(O)c1 [TCS-2312] | -1.1 | -85.0 | -94.1 |  |  | 
CN1CCN(Cc2ccc(Nc3ncc(Cl)c(Nc4ccccc4S(=O)(=O)N(C)C)n3)cc2)CC1 [TP-0903] | -1.2 | -74.0 | -96.9 |  |  | 68.7 nM
N#C/C(=C\c1ccc(O)c(O)c1)C(=O)NCCCNC(=O)/C(C#N)=C/c1ccc(O)c(O)c1 [Tyrphostin AG 537] | -1.1 | -98.0 | -83.8 |  |  | 
CN[C@@H]1C[C@H]2O[C@@](C)([C@@H]1OC)n1c3ccccc3c3c4c(c5c6ccccc6n2c5c31)C(=O)N[C@H]4O [UCN-01] | -1.1 | -83.5 | -93.0 |  |  | 
CC[C@@](C)(Nc1ccnc(-c2c[nH]c3ncccc23)n1)C(=O)NCC(F)(F)F [VX-509 (Decernotinib)] | -1.1 | -91.7 | -97.1 |  |  | 
CN1CC[C@@H](c2c(O)cc(O)c3c(=O)cc(-c4ccc(C(F)(F)F)cc4Cl)oc23)[C@@H]1CO [Voruciclib] | -1.1 | -95.6 | -95.8 |  |  | 
CC(C)c1cc(CNc2nc(Nc3cc(C4CC4)[nH]n3)cc(N3CCN(C)CC3)n2)on1 [XL-228] | -1.1 | -97.1 | -96.7 |  |  | 
O=C1NCCSc2c1sc1ccc(O)cc21 [kb-NB142-70] | -1.1 | -82.7 | -91.1 |  |  | 

Source: article PMC6013488, “A widely-applicable high-throughput cellular thermal shift assay (CETSA) using split Nano Luciferase” (Scientific Reports, 2018)
